This test has as its system T1, TthHPRT (hypoxanthine phosphoribosyltransferase Thermus thermophilus HB27).
T1 construct: gene hpt; C-terminal His-tag (pET-23a+), E. coli C3030
The experiment in a line: HPLC product quantification, initial rate, nonlinear regression. Format: biochemical. The following applies: 5 mM MgCl2, 20 mM Tris-HCl pH 8.0, 70 °C. From the text: HPLC product quantification, initial rate, nonlinear regression on TthHPRT (hypoxanthine phosphoribosyltransferase Thermus thermophilus HB27)

Structures are written as SMILES.

What is called Km is the concentration of substrate that gives half-maximal velocity. With `O=c1[nH]cnc2nc[nH]c12` [hypoxanthine], the Michaelis-Menten constant (Km) (1 mM PRPP) was determined as 13 ± 4 µM. With `O=P(O)(O)OC[C@H]1O[C@H](OP(=O)(O)OP(=O)(O)O)[C@H](O)[C@@H]1O` [PRPP], the Km (0.50 mM hypoxanthine) turned out to be 220 ± 60 µM. Consider `Nc1nc2[nH]cnc2c(=O)[nH]1` [guanine], for which, under “1 mM PRPP”, the Michaelis constant (Km) stood at 28 ± 9 µM.
